According to PMC11101637, “Bioinformatics leading to conveniently accessible, helix enforcing, bicyclic ASX motif mimics (BAMMs)” (Nature Communications, 2024):
Peptide text beside a SMILES is read from it. * marks the point of attachment. X2 = C[C@@H]1NC(=O)[C@H](C)NC(=O)[C@H](CC(=O)O)NC(=O)[C@@H](N)CSCc2cc3cc(c2)CSC[C@@H](C(=O)*)NC(=O)[C@H](CSC3)NC1=O

What was measured:
[1] = In vitro peptide stability in human serum; format: in vitro ADME; settings: 25% male human serum diluted in RPMI medium, 150 μM peptide, 37 °C, serum pre-equilibrated 15 min, methanol precipitation, RP-HPLC 210 nm peak area relative to 0 h, LC-MS for products
Experimental: In vitro peptide stability in human serum[50]
Male human serum (H-4522) was obtained from Sigma Aldrich (Missouri, USA). […] The initial time is recorded as peptides were added. The mixture was incubated at 37 °C and an aliquot of 40 μL was removed at different time intervals. […] The supernatant was analyzed in analytical RP-HPLC to calculate the amount of tested peptides, and in LCMS to analyze degradation products. The eluted peptides were detected by absorbance at 210 nm and quantified by their peak areas relative to the initial peak areas (0 h).

[2] = CD spectroscopy: percent helicity and ellipticity ratio 222/208 nm; format: physicochemical; settings: for % helicity: 5-30 μM peptide, three scans averaged, [θ]222/[θ]max
Experimental: Circular dichroism (CD) experiments
Concentrations of the stock solution were determined by […] absorption of Trp or 275 nm absorption of Tyr (and TMB, if present in peptides). Each sample was dissolved in 1x PBS (pH 7.4), 10% TFE/PBS or 20% TFE/PBS with the final concentration between 5 to 30 μM. CD spectra were acquired using circular dichroism spectrometer (Chirascan) equipped with a temperature controller using 1 mm cell at a scan speed of 0.5 nm/sec at indicated temperature. Each sample was scanned three times and the averaged spectrum was smoothed.
Calculation of percent helicity
For simplicity, ‘helicity’ or ‘helical’ in the following text all refers to α-type. For each peptide, mean residue ellipticities ([θ]/(c*n), c = concentration of the peptide, n = number of amino acids in the peptide) were used to calculate % helicity, which is an empirical indicator of peptide helicity. […] (n = number of amino acids in the peptide, T = 25.0 °C).

[3] = Amide H-D exchange study (NMR), protection factors; format: physicochemical; settings: for H/D exchange experiment, per-residue value (Fig 5i): amide H-D exchange by NMR
Experimental: Lyophilized samples of peptides LDLL 12-mer and bicyclo 12-mer from the above experiments were dissolved in 600 µL of D2O/ TFE-d3 mixture (4:1) to initialize the H-D exchange. The pH of the solution was confirmed. Spectra were recorded on a preshimmed Bruker AVANCE 500 MHz spectrometer. The recorded temperature was 33 °C. The intensity changes for each amide proton were determined by monitoring either the NH peaks on 1D spectra or the cross-peaks between NH and RH on 2D TOCSY spectra when overlapping was severe. The peak intensity data was fit into one phase exponential equation to get the exchange rate constants using GraphPad Prism 6.0 program. The rate constants were input into Englander lab’s spreadsheet (https://hx2.med.upenn.edu/download.html) to calculate protection factor and stabilization energy.

[4] = CD in PBS buffer (pH 7.4, 10 mM), 25.0 °C, 1 mm cell

Row | Compound | half-life [1] [h] | ellipticity ratio 222/208 nm ([2]; CD in 10% TFE/PBS, 25 °C) | % helicity ([2]; CD in 10% TFE/PBS, 25 °C) [%] | % helicity [2, 4] [%] | ellipticity ratio 222/208 nm ([2]; CD in PBS, 25 °C) | H/D exchange experiment, per-residue value (Fig 5i) ([3]; resi ID 3) | H/D exchange experiment, per-residue value (Fig 5i) ([3]; resi ID 4) | H/D exchange experiment, per-residue value (Fig 5i) ([3]; resi ID 5) | H/D exchange experiment, per-residue value (Fig 5i) ([3]; resi ID 6) | H/D exchange experiment, per-residue value (Fig 5i) ([3]; resi ID 7) | H/D exchange experiment, per-residue value (Fig 5i) ([3]; resi ID 8) | H/D exchange experiment, per-residue value (Fig 5i) ([3]; resi ID 9) | H/D exchange experiment, per-residue value (Fig 5i) ([3]; resi ID 10) | protection factors (H/D exchange) around the capping region ([3]; D2O/TFE-d3 (4:1), 33 °C, NMR 500 MHz) | H/D exchange experiment, per-residue value (Fig 5i) ([3]; resi ID 1) | H/D exchange experiment, per-residue value (Fig 5i) ([3]; resi ID 11)
1 | CC[C@H](C)[C@H](NC(=O)[C@H](CC(N)=O)NC(=O)[C@H](CCCCN)NC(=O)[C@@H]1CSCc2cc3cc(c2)CSC[C@H](N)C(=O)N[C@@H](CC(=O)O)C(=O)N[C@@H](C)C(=O)N[C@@H](C)C(=O)N[C@@H](CSC3)C(=O)N1)C(=O)N[C@@H](C)C(=O)N[C@@H](CO)C(=O)N[C@@H](CC(C)C)C(=O)N[C@@H](CC(C)C)C(=O)N[C@@H](CCCNC(=N)N)C(=O)N[C@H](C(=O)N[C@@H](CCC(N)=O)C(=O)N[C@@H](C)C(=O)N[C@@H](Cc1c[nH]cn1)C(=O)N[C@H](C(=O)N[C@@H](CCCNC(=N)N)C(=O)N[C@@H](CCCCN)C(=O)N[C@@H](CCCCN)C(=O)N[C@@H](CCSC)C(=O)N[C@H](C(=O)N[C@@H](Cc1ccc(O)cc1)C(N)=O)C(C)C)[C@@H](C)CC)C(C)C [4B] (X2-KNIASLLRVQAHIRKKMVY-NH2; N-terminus and C-terminus assumed) | 1.1 | 1 | 45 | 22 | 0.64 | – | – | – | – | – | – | – | – | – | – | –
2 | C[C@H](NC(=O)[C@H](CCCCN)NC(=O)[C@H](C)NC(=O)[C@H](C)NC(=O)[C@H](C)NC(=O)[C@@H]1CSCc2cc3cc(c2)CSC[C@H](NC(=O)[C@@H](N)Cc2c[nH]c4ccccc24)C(=O)N[C@@H](CC(=O)O)C(=O)N[C@@H](C)C(=O)N[C@@H](C)C(=O)N[C@@H](CSC3)C(=O)N1)C(N)=O [Bicyclo-short] | – | – | – | – | – | 1.33 | 1.81 | 2.88 | 3.7 | 2.57 | 2.46 | 2.32 | 2.24 | – | – | –
3 | C[C@H](NC(=O)[C@H](CCCCN)NC(=O)[C@H](C)NC(=O)[C@H](C)NC(=O)[C@H](C)NC(=O)[C@@H]1CSCc2cc3cc(c2)CSC[C@H](NC(=O)[C@@H](N)Cc2c[nH]c4ccccc24)C(=O)N[C@@H](CC(=O)O)C(=O)N[C@@H](C)C(=O)N[C@@H](C)C(=O)N[C@@H](CSC3)C(=O)N1)C(N)=O [bicyclo 12-mer] | – | 1.21 | 72 | 59 | 0.76 | – | – | – | – | – | – | – | – | significantly higher than for the linear LDLL 12-mer | – | –
4 | Ac-LDAALLAAAKAW-NH2 [LDLL-short] | – | – | – | – | – | 1.3 | 1.66 | 1.96 | 1.83 | 1.96 | – | 2.2 | 1.69 | – | 0.3 | 1.68
